Here are results for 18 compounds from patent US8883801B2, “Substituted pyrazolo[1,5-a]pyrimidines as mTOR inhibitors” (Merck Sharp & Dohme Corp., priority 2010, dated 2014).

Read-outs that look alike come from different tables or passages of the source.

Test [1] addresses human mTOR enzyme (Homo sapiens, UniProt P42345). The experiment in a line: HTRF mTOR enzyme (kinase) assay. It counts as biochemical. The note with it: 5 μM ATP, 0.2 μM GST-S6K, read-out: hMTOR IC50. As to the method: Methods: An HTRF mTOR enzyme assay was developed to assess the compounds' inhibitory activity. The mTOR assay buffer contained 10 mM Hepes (pH 7.4), 50 mM NaCl, […] BSA, 50 mM […], 10 mM MnCl2 and 0.5 mM DTT. […] 20 ng of human mTOR enzyme (<5% pure was preincubated with the compound for 10 minutes followed by the addition of 5 μM ATP and 0.2 μM GST-S6K (Zhang et al., Protein Expression and Purification 46, pp 414-420 (2006)). The reaction was incubated for one hour at 30° C. Anti phospho p70-S6K(Thr389) (˜1.7 ng/well, anti-phospho-p70S6K-cryptate (Pho-p70S6-Kin-K cat#64CUSKAY, from Cisbio)) and anti GST-XL665 (1:1 Ratio with the substrate GST-S6K, anti GST-XL665, cat#61GSTXLB) Cisbio) were added after the reaction was stopped. The plates were read (PHERAstar, BMG) at least 2 hours after adding the anti phospho p70-S6K and the anti GST-XL665.
IC50 DETERMINATIONS: Dose-response curves were plotted from the inhibition data generated, each in duplicate, from 8 point serial dilutions of inhibitory compounds. Concentration of compound was plotted against the HTRF em665/em590 ratio signal. To generate IC50 values, the dose-response curves were fitted to a standard sigmoidal curve and IC50 values were derived by nonlinear regression analysis.

Test [2] has as its system mTORC2 activity: phosphorylated AKT Ser473 (pAKT S473) in PC3 cells. The experiment in a line: mTOR target engagement assay, immunofluorescent cell-based, mTORC2 readout. The note with it: Homo sapiens, PC-3, 1.5 h, 90 min treatment. As to the method: The target engagement of mTOR kinase inhibitors was evaluated using an immunofluorescent cell-based assay. In this assay, inhibition of mTORC1 activity was measured by the reduction in the level of phosphorylated 4E-BP1Thr37/46 (p4E-BP1 Thr37/46), and inhibition of mTORC2 activity was measured by the reduction of phosphorylated AKTSer473 (pAKT S473).
PC3 cells (prostate tumor cell-line that contains a mutation in the tumor suppressor PTEN, that promotes the phosphorylation and activation of AKT and 4E-BP1) were used in the immunofluorescence assay. PC3 cells were seeded on 384 well plates (black clear bottom, Matrix #4332) overnight. PC3 cells were then treated with 40 μl of the serially diluted test compounds (in 5% fetal bovine serum, F12 medium containing 0.25% DMSO) for ninety minutes at 37° C. The test compound solution was removed, and the plates were washed gently two times with 25 μl phosphate buffered saline (PBS). The cells were fixed by adding 25 μl of Prefer reagent (from Anatech LTD, Cat#414, a glyoxal fixative for fixing proteins within a cell) for sixty minutes followed by three washes with PBS. 5% Goat serum in PBS/0.3% Triton was used to block non-specific binding (60 minutes).
The primary antibodies targeting pAKT S473 and p4E-BP1 Thr37/46 were diluted into PBS/0.3% Triton and incubated with the cells overnight at 4° C. The antibodies targeting pAKTS473 (Cat#4085, Cell signaling) and p4E-BP1 Thr37/46 (Cat#2855, Cell signaling) were used at a 1:100 dilution. Plates were washed three times with PBS/0.1% Tween 20 before adding the secondary antibody at a 1:200 dilution. (goat anti-rabbit containing a fluorescent label, Alexa Fluor 488, Cat#A11008, Invitrogen) in PBS/0.3% Triton for 60 minutes.
Finally, the plates were washed three times with PBS/0.1% Tween 20 and the fluorescent intensity was read using an Analyst HT from Molecular Devices. The fluorescent intensity values from the serially diluted compound treatment group were analyzed using the Xlfit 4 program ([…]) (Formula 205: Y=Bottom+(Top-Bottom)/(1+(IC50/X)^Hillslope) to generate the IC50 value. Where Top is the maximum signal without Compound (+DMSO only) and Bottom represents maximum inhibition. Y is the fluorescence at some compound concentration. The control used to determine the fluorescent intensities for 100% pAKT S473 or 100% phosphorylated p4E-BP1 Thr37/46 were measured from untreated wells that contained only DMSO, instead of test compound.

Chain of human mTOR enzyme (P42345 1360-2549 limits assumed): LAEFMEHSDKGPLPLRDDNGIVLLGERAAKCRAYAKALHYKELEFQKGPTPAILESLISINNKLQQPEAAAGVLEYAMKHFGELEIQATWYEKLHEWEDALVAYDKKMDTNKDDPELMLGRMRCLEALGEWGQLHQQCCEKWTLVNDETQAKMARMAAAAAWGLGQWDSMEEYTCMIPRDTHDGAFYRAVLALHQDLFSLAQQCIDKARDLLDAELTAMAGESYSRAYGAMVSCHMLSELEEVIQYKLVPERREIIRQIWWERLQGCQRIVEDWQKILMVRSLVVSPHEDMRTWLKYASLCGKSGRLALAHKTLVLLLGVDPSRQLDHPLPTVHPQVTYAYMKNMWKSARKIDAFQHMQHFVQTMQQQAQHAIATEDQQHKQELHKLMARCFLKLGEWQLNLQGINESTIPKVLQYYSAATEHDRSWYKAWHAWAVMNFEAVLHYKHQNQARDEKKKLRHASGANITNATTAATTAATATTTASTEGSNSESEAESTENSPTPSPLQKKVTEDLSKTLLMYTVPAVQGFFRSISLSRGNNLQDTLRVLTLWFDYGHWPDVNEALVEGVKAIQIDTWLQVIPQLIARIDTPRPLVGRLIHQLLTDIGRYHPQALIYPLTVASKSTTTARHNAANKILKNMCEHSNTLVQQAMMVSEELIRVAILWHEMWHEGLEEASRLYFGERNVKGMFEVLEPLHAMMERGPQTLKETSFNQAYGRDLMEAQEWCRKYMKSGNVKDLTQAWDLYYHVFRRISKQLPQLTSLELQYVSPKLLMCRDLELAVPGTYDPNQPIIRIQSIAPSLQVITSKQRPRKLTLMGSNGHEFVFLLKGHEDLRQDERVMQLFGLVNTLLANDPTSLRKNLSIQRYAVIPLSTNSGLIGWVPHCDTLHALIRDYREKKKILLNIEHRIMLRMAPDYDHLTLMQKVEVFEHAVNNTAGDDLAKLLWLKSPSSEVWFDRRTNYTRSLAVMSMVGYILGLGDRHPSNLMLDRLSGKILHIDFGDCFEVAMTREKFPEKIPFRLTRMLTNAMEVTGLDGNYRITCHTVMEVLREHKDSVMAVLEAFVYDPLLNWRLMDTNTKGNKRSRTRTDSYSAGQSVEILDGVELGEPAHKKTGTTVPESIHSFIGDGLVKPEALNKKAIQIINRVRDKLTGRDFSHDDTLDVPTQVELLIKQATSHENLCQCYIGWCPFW

`COc1ccc(-c2ccc(-c3cnn4c(N)c(C(C)=O)c(C5CCC(O)(CO)CC5)nc34)cn2)cn1` (single isomer, unassigned) [Compound 146, 1-(7-amino-5-(4-hydroxy-4-(hydroxymethyl)-cyclohexyl)-3-(6′-methoxy-2,3′-bipyridin-5-yl)pyrazolo[1,5-a]pyrimidin-6-yl)ethanone]: the IC50 in test [1] (rated class) is 1 to 100 nM; in test [2] (rated class), 2000 to 5000 nM. For `CC(=O)c1c(C2CCC(O)(CO)CC2)nc2c(-c3cnn(-c4cscn4)c3)cnn2c1N` (single isomer, unassigned) [Compound 152, 1-(7-amino-5-(4-hydroxy-4-(hydroxymethyl)-cyclohexyl)-3-(1-(thiazol-4-yl)-1H-pyrazol-4-yl)pyrazolo[1,5-a]pyrimidin-6-yl)ethanone] the same measures were 1 to 100 nM and 1000 to 2000 nM. As for `C[C@]1(C(=O)O)CC[C@@H](c2nc3c(-c4ccc(-c5ccccc5)nc4)cnn3c(N)c2Br)CC1` [Compound 2, (1S,4S)-4-(7-amino-6-bromo-3-(6-phenylpyridin-3-yl)pyrazolo[1,5-a]pyrimidin-5-yl)-1-methylcyclohexanecarboxylic acid], the IC50 in test [1] (rated class) fell in the range of 1 to 100 nM; in test [2] (rated class) it was 2000 to 5000 nM. Regarding `Nc1c(Br)c([C@H]2CC[C@](F)(C(=O)O)CC2)nc2c(-c3ccc(-c4ccccc4)nc3)cnn12` [Compound 3, (1S,4S)-4-(7-amino-6-bromo-3-(6-phenylpyridin-3-yl)pyrazolo[1,5-a]pyrimidin-5-yl)-1-fluorocyclohexane-carboxylic acid], the half-inhibitory concentration (IC50) in test [1] (rated class) was in the range of 1 to 100 nM; in test [2] (rated class), 1000 to 2000 nM. Take `Nc1c(Br)c([C@H]2CC[C@@](F)(C(=O)O)CC2)nc2c(-c3ccc(-c4ccccc4)nc3)cnn12` [Compound 4, (1R,4R)-4-(7-amino-6-bromo-3-(6-phenylpyridin-3-yl)pyrazolo[1,5-a]pyrimidin-5-yl)-1-fluorocyclohexane-carboxylic acid]: the half-inhibitory concentration (IC50) in test [1] (rated class) lay in the range of 1 to 100 nM; in test [2] (rated class) it was 100 to 1000 nM. For `COCC1(C(=O)O)CCC(c2nc3c(-c4ccc(-c5ccccc5)nc4)cnn3c(N)c2Br)CC1` (stereo not drawn) [Compound 5, 4-(7-amino-6-bromo-3-(6-phenylpyridin-3-yl)pyrazolo[1,5-a]pyrimidin-5-yl)-1-(methoxymethyl)-cyclohexane-carboxylic acid], the results for the IC50 in test [1] (rated class) and in test [2] (rated class) were 1 to 100 nM and 100 to 1000 nM, respectively.

On to `COCC1(C(=O)O)CCC(c2nc3c(-c4cnn(-c5ccccc5)c4)cnn3c(N)c2Br)CC1` (stereo not drawn) [Compound 6, 4-(7-amino-6-bromo-3-(1-phenyl-1H-pyrazol-4-yl)pyrazolo[1,5-a]pyrimidin-5-yl)-1-(methoxymethyl)-cyclohexane-carboxylic acid], for which the results for the IC50 in test [1] (rated class) and in test [2] (rated class) were 1 to 100 nM and 1000 to 2000 nM, respectively. For `COC[C@]1(C(=O)O)CC[C@H](c2nc3c(-c4cnc5ccc(F)cc5c4)cnn3c(N)c2Br)CC1` [Compound 7, (1R,4R)-4-(7-amino-6-bromo-3-(6-fluoroquinolin-3-yl)pyrazolo[1,5-a]pyrimidin-5-yl)-1-(methoxymethyl)-cyclohexane-carboxylic acid] the same measures were 1 to 100 nM and 1000 to 2000 nM. For `COC[C@]1(C(=O)O)CC[C@@H](c2nc3c(-c4cnc5ccc(F)cc5c4)cnn3c(N)c2Br)CC1` [Compound 8, (1S,4S)-4-(7-amino-6-bromo-3-(6-fluoroquinolin-3-yl)pyrazolo[1,5-a]pyrimidin-5-yl)-1-(methoxymethyl)-cyclohexane-carboxylic acid] the same measures were 1 to 100 nM and 5000 to 15000 nM. For `CS[C@]1(C(=O)O)CC[C@H](c2nc3c(-c4cnn(-c5ccccc5)c4)cnn3c(N)c2Br)CC1` [Compound 9, (1S,4S)-4-(7-amino-6-bromo-3-(1-phenyl-1H-pyrazol-4-yl)pyrazolo[1,5-a]pyrimidin-5-yl)-1-(methylthio)-cyclohexane-carboxylic acid] the same measures were 1 to 100 nM and 100 to 1000 nM.

As to `CS[C@]1(C(=O)O)CC[C@@H](c2nc3c(-c4cnn(-c5ccccc5)c4)cnn3c(N)c2Br)CC1` [Compound 10, (1R,4R)-4-(7-amino-6-bromo-3-(1-phenyl-1H-pyrazol-4-yl)pyrazolo[1,5-a]pyrimidin-5-yl)-1-(methylthio)-cyclohexane-carboxylic acid], the IC50 in test [1] (rated class) lay within 1 to 100 nM; in test [2] (rated class), 2000 to 5000 nM. On to `COCCOC[C@]1(C(=O)O)CC[C@H](c2nc3c(-c4ccc(-c5ccccc5)nc4)cnn3c(N)c2Br)CC1` [Compound 11, (1R,4R)-4-(7-amino-6-bromo-3-(6-phenylpyridin-3-yl)pyrazolo[1,5-a]pyrimidin-5-yl)-1-((2-methoxyethoxy)methyl)cyclohexane-carboxylic acid], for which the values for the IC50 in test [1] (numeric value) and in test [2] (numeric value) were 4.61 nM and 2030 nM, respectively.

For the compound `COCCOC[C@]1(C(=O)O)CC[C@@H](c2nc3c(-c4ccc(-c5ccccc5)nc4)cnn3c(N)c2Br)CC1` [Compound 12, (1S,4S)-4-(7-amino-6-bromo-3-(6-phenylpyridin-3-yl)pyrazolo[1,5-a]pyrimidin-5-yl)-1-((2-methoxyethoxy)methyl)cyclohexane-carboxylic acid], the IC50 was 1 to 100 nM in test [1] (rated class) and 2000 to 5000 nM in test [2] (rated class). For `COCCOC[C@]1(C(=O)O)CC[C@H](c2nc3c(-c4cnn(-c5ccccc5)c4)cnn3c(N)c2Br)CC1` [Compound 13, (1R,4R)-4-(7-amino-6-bromo-3-(1-phenyl-1H-pyrazol-4-yl)pyrazolo[1,5-a]pyrimidin-5-yl)-1-((2-methoxyethoxy)methyl)cyclohexane-carboxylic acid], the IC50 in test [1] (rated class) was in the range of 1 to 100 nM; in test [2] (rated class), 5000 to 15000 nM. For `COCCOC[C@]1(C(=O)O)CC[C@@H](c2nc3c(-c4cnn(-c5ccccc5)c4)cnn3c(N)c2Br)CC1` [Compound 14, (1S,4S)-4-(7-amino-6-bromo-3-(1-phenyl-1H-pyrazol-4-yl)pyrazolo[1,5-a]pyrimidin-5-yl)-1-((2-methoxyethoxy)methyl)cyclohexane-carboxylic acid] the same measures were 1 to 100 nM and 5000 to 15000 nM. Take `COC(=O)c1cc(-c2ccc(-c3cnn4c(N)c(C(C)=O)c([C@H]5CC[C@](O)(CO)CC5)nc34)cn2)ccc1OC` [Compound 154, methyl 5-(5-(6-acetyl-7-amino-5-((1S,4S)-4-hydroxy-4-(hydroxymethyl)-cyclohexyl)-pyrazolo-[1,5-a]pyrimidin-3-yl)pyridin-2-yl)-2-methoxybenzoate]: the IC50 in test [1] (rated class) fell in the range of 1 to 100 nM.

`COC[C@]1(O)CC[C@H](c2nc3c(-c4ccc(-c5ccccc5)nc4)cnn3c(N)c2Br)CC1` [Compound 163, (1R,4R)-4-(7-amino-6-bromo-3-(6-phenylpyridin-3-yl)pyrazolo[1,5-a]pyrimidin-5-yl)-1-(methoxymethyl)cyclohexanol]: the IC50 in test [1] (rated class) lay within 1 to 100 nM. Regarding `COCC1(CO)CCC(c2nc3c(-c4cnn(-c5ccccc5)c4)cnn3c(N)c2Br)CC1` (stereo not drawn) [Compound 167, (4-(7-amino-6-bromo-3-(1-phenyl-1H-pyrazol-4-yl)pyrazolo[1,5-a]pyrimidin-5-yl)-1-(methoxymethyl)-cyclohexyl)methanol], the IC50 in test [1] (rated class) was in the range of 1 to 100 nM.
